How the values were obtained:
Type in all cases: in vivo
PHBPU (Ipomoea purpurea) = test: pre-emergence greenhouse test; conditions: for observed activity in % destruction: pre-emergence, 3.75 g ai/ha
Source text: (§1) For the pre-emergence treatment, directly after sowing the active compounds, which had been suspended or emulsified in water, were applied by means of finely distributed nozzles. The containers were irrigated gently to promote germination and growth and subsequently covered with transparent plastic hoods until plant had rooted. This cover caused uniform germination of the tests plants, unless this was adversely affected by active compounds.
(§2) The respective herbicides A and/or safener were formulated as 10% by weight strength suspension concentrate and introduced to the spray liquor with the amount of solvent system used for applying the active compound. Herbicide B and/or safener were used as commercially available formulations and introduced to the spray liquor with the amount of solvent system used for applying the active compound. In the examples, the solvent used was water.
(§3) The test period extended over 20 days. During this time, the plants were tended, and their response to the treatments with active compound was evaluated.
(§4) In the following experiments, the herbicidal activity for the individual herbicide compounds (solo application) and of the mixture was assessed 8 days after treatment (8 DAT) and/or 20 days after treatment (20 DAT).
(§5) The evaluation for the damage caused by the chemical compositions was carried out using a scale from 0 to 100%, compared to the untreated control plants. Here, 0 means no damage and 100 means complete destruction of the plants.

[1] = test system: ALOMY (Alopecurus myosuroides); test: pre-emergence greenhouse test; conditions: for observed activity in % destruction: pre-emergence, 15 g ai/ha
Source text: as §1, §2, §3, §4, §5

[2] = test system: AMARE (Amaranthus retroflexus); test: pre-emergence greenhouse test; conditions: pre-emergence
Source text: as §1, §2, §3, §4, §5

[3] = test system: COMBE (Commelina benghalensis); test: pre-emergence greenhouse test; conditions: for observed activity in % destruction: pre-emergence
Source text: as §1, §2, §3, §4, §5

[4] = test system: BRAPL (Brachiaria plantaginea); test: pre-emergence greenhouse test; conditions: for observed activity in % destruction: pre-emergence, 15 g ai/ha
Source text: as §1, §2, §3, §4, §5

SOLNI (Solanum nigrum) = test: pre-emergence greenhouse test; conditions: for observed activity in % destruction: pre-emergence
Source text: as §1, §2, §3, §4, §5

[5] = test system: ECHCG (Echinochloa crus-galli); test: pre-emergence greenhouse test; conditions: for observed activity in % destruction: pre-emergence
Source text: as §1, §2, §3, §4, §5

[6] = test system: LOLMU (Lolium multiflorum); test: pre-emergence greenhouse test; conditions: for observed activity in % destruction: pre-emergence
Source text: as §1, §2, §3, §4, §5

SETVI (Setaria viridis) = test: pre-emergence greenhouse test
Source text: as §1, §2, §3, §4, §5

[7] = test system: PANDI (Panicum dichotomiflorum); test: pre-emergence greenhouse test; conditions: pre-emergence
Source text: as §1, §2, §3, §4, §5

[8] = test system: ABUTH (Abutilon theophrasti); test: pre-emergence greenhouse test; conditions: pre-emergence, 7.5 g ai/ha
Source text: as §1, §2, §3, §4, §5

ERBVI = test: pre-emergence greenhouse test; conditions: ERBVI pre-emergence 15 g ai/ha
Source text: as §1, §2, §3, §4, §5

[9] = test system: ALOMY (Alopecurus myosuroides); test: post-emergence greenhouse test; conditions: 3.75 g ai/ha
Source text: (§6) For the post-emergence treatment, the test plants were first grown to a height of 3 to 20 cm, depending on the plant habit, and only then treated. Here, the herbicidal compositions were suspended or emulsified in water as distribution medium and sprayed using finely distributing nozzles.
as §2, §3, §4, §5

[10] = test system: CHEAL (Chenopodium album); test: post-emergence greenhouse test; conditions: 15 g ai/ha
Source text: as §6, §2, §3, §4, §5

[11] = test system: MERAN (Mercurialis annua); test: post-emergence greenhouse test; conditions: 7.5 g ai/ha
Source text: as §6, §2, §3, §4, §5

Structure (SMILES): Cc1cnc(C2=NC(=O)C(C)(C(C)C)N2)c(C(=O)O)c1 (stereo not drawn) [imazapic]
- observed % destruction 20 DAT (PHBPU (Ipomoea purpurea); PHBPU pre-emergence 3.75 g ai/ha): 25%
- observed activity in % destruction (PHBPU (Ipomoea purpurea); 8 DAT): 30%
- observed activity in % destruction (PHBPU (Ipomoea purpurea); 20 DAT): 25%
- observed % destruction 20 DAT ([1]; ALOMY pre-emergence 15 g ai/ha): 80%
- observed activity in % destruction ([1]; 8 DAT): 40%
- observed activity in % destruction ([1]; 20 DAT): 80%
- observed activity in % destruction ([2]; 3.75 g ai/ha, 8 DAT): 30%
- observed activity in % destruction ([2]; 3.75 g ai/ha, 20 DAT): 55%
- observed activity in % destruction ([2]; 7.5 g ai/ha, 8 DAT): 50%
- observed activity in % destruction ([2]; 7.5 g ai/ha, 20 DAT): 75%
- observed activity in % destruction ([2]; 15 g ai/ha, 8 DAT): 50%
- observed activity in % destruction ([2]; 15 g ai/ha, 20 DAT): 90%
- observed % destruction 20 DAT ([3]; COMBE pre-emergence 3.75 g ai/ha): 30%
- observed % destruction 20 DAT ([3]; COMBE pre-emergence 7.5 g ai/ha): 40%
- observed activity in % destruction ([3]; 3.75 g ai/ha, 8 DAT): 0%
- observed activity in % destruction ([3]; 3.75 g ai/ha, 20 DAT): 30%
- observed activity in % destruction ([3]; 7.5 g ai/ha, 8 DAT): 20%
- observed activity in % destruction ([3]; 7.5 g ai/ha, 20 DAT): 40%
- observed % destruction 20 DAT ([4]; BRAPL pre-emergence 15 g ai/ha): 85%
- observed activity in % destruction ([4]; 8 DAT): 30%
- observed activity in % destruction ([4]; 20 DAT): 85%
- observed % destruction 20 DAT (SOLNI (Solanum nigrum); SOLNI pre-emergence 3.75 g ai/ha): 70%
- observed % destruction 20 DAT (SOLNI (Solanum nigrum); SOLNI pre-emergence 7.5 g ai/ha): 85%
- observed % destruction 20 DAT (SOLNI (Solanum nigrum); SOLNI pre-emergence 15 g ai/ha): 90%
- observed activity in % destruction (SOLNI (Solanum nigrum); 3.75 g ai/ha, 8 DAT): 20%
- observed activity in % destruction (SOLNI (Solanum nigrum); 3.75 g ai/ha, 20 DAT): 70%
- observed activity in % destruction (SOLNI (Solanum nigrum); 7.5 g ai/ha, 8 DAT): 40%
- observed activity in % destruction (SOLNI (Solanum nigrum); 7.5 g ai/ha, 20 DAT): 85%
- observed activity in % destruction (SOLNI (Solanum nigrum); 15 g ai/ha, 8 DAT): 50%
- observed activity in % destruction (SOLNI (Solanum nigrum); 15 g ai/ha, 20 DAT): 90%
- observed % destruction 20 DAT ([5]; ECHCG pre-emergence 7.5 g ai/ha): 60%
- observed % destruction 20 DAT ([5]; ECHCG pre-emergence 15 g ai/ha): 90%
- observed activity in % destruction ([5]; 7.5 g ai/ha, 8 DAT): 30%
- observed activity in % destruction ([5]; 7.5 g ai/ha, 20 DAT): 60%
- observed activity in % destruction ([5]; 15 g ai/ha, 8 DAT): 65%
- observed activity in % destruction ([5]; 15 g ai/ha, 20 DAT): 90%
- observed % destruction 20 DAT ([6]; LOLMU pre-emergence 3.75 g ai/ha): 40%
- observed % destruction 20 DAT ([6]; LOLMU pre-emergence 7.5 g ai/ha): 45%
- observed % destruction 20 DAT ([6]; LOLMU pre-emergence 15 g ai/ha): 65%
- observed activity in % destruction ([6]; 3.75 g ai/ha, 8 DAT): 0%
- observed activity in % destruction ([6]; 3.75 g ai/ha, 20 DAT): 40%
- observed activity in % destruction ([6]; 7.5 g ai/ha, 8 DAT): 0%
- observed activity in % destruction ([6]; 7.5 g ai/ha, 20 DAT): 45%
- observed activity in % destruction ([6]; 15 g ai/ha, 8 DAT): 30%
- observed activity in % destruction ([6]; 15 g ai/ha, 20 DAT): 65%
- observed % destruction 20 DAT (SETVI (Setaria viridis); SETVI pre-emergence 3.75 g ai/ha): 75%
- observed % destruction 20 DAT (SETVI (Setaria viridis); SETVI pre-emergence 7.5 g ai/ha): 90%
- observed % destruction 20 DAT (SETVI (Setaria viridis); SETVI pre-emergence 15 g ai/ha): 95%
- observed activity in % destruction ([7]; 3.75 g ai/ha, 8 DAT): 0%
- observed activity in % destruction ([7]; 3.75 g ai/ha, 20 DAT): 80%
- observed activity in % destruction ([7]; 7.5 g ai/ha, 8 DAT): 30%
- observed activity in % destruction ([7]; 7.5 g ai/ha, 20 DAT): 90%
- observed activity in % destruction ([7]; 15 g ai/ha, 8 DAT): 50%
- observed activity in % destruction ([7]; 15 g ai/ha, 20 DAT): 95%
- observed activity in % destruction ([8]; 8 DAT): 20%
- observed activity in % destruction ([8]; 20 DAT): 75%
- observed % destruction 20 DAT (ERBVI): 65%
- observed activity in % destruction ([9]; 8 DAT): 35%
- observed activity in % destruction ([9]; 20 DAT): 30%
- observed activity in % destruction ([10]; 8 DAT): 20%
- observed activity in % destruction ([10]; 20 DAT): 30%
- observed activity in % destruction ([11]; 8 DAT): 20%
- observed activity in % destruction ([11]; 20 DAT): 0%

From US20110015067A1, “Herbicidal Compositions Comprising Pyroxasulfone” (BASF SE, priority 2008, published 2011)
